Data as given in paper PMC12598616, “Design and optimization of caspase-1-responsive fluorescent probes for pyroptosis imaging and anti-pyroptosis drug screening” (Chemical Science, 2025).

Tests used:
[1] = system: activated Cas-1 in primary peritoneal macrophages; assay: High-content screening / fluorescence imaging for caspase-1 modulators in primary peritoneal macrophages; format: cell-based, mouse; conditions: LPS then Nig 10 μM 2 h; FPy1 5 μM
Excerpt: The efficient and rapid discovery of Cas-1 modulators is of significant importance considering the therapeutic potential of Cas-1 in various diseases.[39,40] Therefore, we employed FPy1 to construct a high-content screening system aimed at identifying Cas-1 modulators. The level of activated Cas-1 in cells is influenced by multiple factors. To reduce the impact of factors that affect Cas-1 activation in cells, we utilized the NLRP3 inflammasome-mediated Cas-1 activation model, administering the drug during the second stage where the zymogen was converted into activated Cas-1. MCC950, a selective NLRP3 inflammasome inhibitor that could suppress Cas-1 activation, was selected as the positive drug.[41] […] To validate the efficacy of the Cas-1 modulator screening system (Fig. 6a), we first observed the fluorescence images of PMs stained with FPy1 (5 μM) in the control group, model group, and positive drug group. […] Subsequently, the impact of 25 natural products (10 μM) on activated Cas-1 were studied using high-content analysis (Fig. S20). […] To determine whether deoxyshikonin directly binds to Cas-1 and inhibits its activity, we conducted fluorescence detection following co-incubation of deoxyshikonin, FPy1 and Cas-1. […]
Harvested rat discs were fixed in 4 % buffered paraformaldehyde for 24 hours, decalcified in 10 % ethylenediaminetetraacetic acid (EDTA, Solarbio, E8030) solution for 1 month, embedded in paraffin, and sectioned at a thickness of 5 μm. […] Stained sections were evaluated by three independent raters, blinded to the research protocol, and measurements were averaged for statistical analysis. […]
In vivo fluorescence imaging of intervertebral disc degeneration
Twelve rats were modeled with needle puncture-induced intervertebral disc degeneration at the Co5/6, Co6/7 and Co 7/8 levels. […] In vivo fluorescence images were acquired using an in vivo Imaging System (PerkinElmer). […]
In vivo fluorescence imaging of osteoarthritis […]

[2] = system: puncture-induced IVDD rat model; assay: In vivo fluorescence imaging of intervertebral disc degeneration; design: species or system Sprague-Dawley rat; conditions: intradiscal injection, 0, 1, 2, 4 weeks after puncture
Procedure: and signals were collected from 530 to 610 nm.
Chondrocytes spheroid cultivation
Chondrocytes were isolated from articular cartilage and resuspended in 1mL DMEM/F12 medium containing 10 μM ITS-A. A total of […] were counted and transferred into centrifuge tubes. The cells were incubated in these tubes with half of the medium changed periodically.
Intracellular imaging in chondrocytes and 3D cell spheroids
The chondrocytes or 3D cell spheroids were seeded in dishes and cultured overnight. Subsequently, the cells or spheroids were incubated with H2O2 for 30, 60 and 90 minutes. Afterward, the cells were further incubated in medium containing 5 μM FPy1 for 1 hour. Fluorescence imaging was then performed with an excitation of 514 nm, and signals were […]
Flow cytometry assays in THP-1 cells
The flow cytometry assays were performed to evaluate the response of FPy1 in THP-1 cells. THP-1 cells were seeded in 6-well plates at a density of 10^5 cells per well and cultured overnight. […] The results were analyzed with using FlowJo […]
Fixed cells or tissue sections were washed with PBS, permeabilized with 0.2 % Triton X-100 (Sigma–Aldrich) for 20 minutes, and blocked with 5 % bovine serum albumin for 1 hour at 37 °C. […] Staining results were examined under a fluorescence microscope (Olympus, IX83-FV3000) and quantified using ImageJ (Bethesda, MD, V1.8.0, NIH). […]

## –FLTDG– [FPy1, RhoB donor, hNR quencher]
[1]
  fluorescence of FPy1-stained macrophages, model vs control group: significant fluorescence enhancement compared to the control group
[2]; Co5/6, Co6/7, Co7/8
  in vivo fluorescence at puncture site: significant enhancement of fluorescence at the corresponding areas
[2]
  differentiation of IVDD stages by fluorescence intensity: could significantly differentiate the four different stages of IVDD
